# Results published in ChEMBL document CHEMBL6103572, “Design, synthesis and structure-activity relationship of novel 1,2,4-triazolopyrimidin-5-one derivatives targeting GABAA1 and Nav1.2 with antiepileptic activity” (Eur J Med Chem, 2025).
# Legend:
# Mus musculus [1] = test: Anticonvulsant activity in MES-induced seizure Kunming mouse model assessed as protection against tonic hind limb extension at 30 mg/kg, ip measured after 30 min; type: functional, organism-based
# [2] = Protection index, ratio of TD50 for neurotoxicity in ip dosed scPTZ induced Kunming mouse to ED50 for anticonvulsant activity in ip dosed scPTZ induced Kunming mouse; type: toxicity, organism-based; details: in vivo, read-out: Ratio TD50/ED50
# [3] = target: GABA-A receptor; alpha-1/beta-2/gamma-2 (Homo sapiens) (UniProt P14867+P47870+P18507); test: Potentiation of recombinant human alpha1/beta2/gamma2 GABA receptor expressed in T-REX-CHO cells assessed as fold increase in current amplitude by measuring maximum efficacy by whole-cell patch clamp assay; type: cell-based; details: filed as activator, time 24-48 hrs
# [4] = target: Sodium channel protein type 2 subunit alpha (Homo sapiens, UniProt Q99250); test: Inhibition of Nav 1.2 (unknown origin) expressed in HEK293 cells at -20 mV to -120 mV holding potential under inactivation state by whole-cell patch clamp analysis; type: cell-based
# Sodium channel protein type 2 subunit alpha, sequence (Q99250 whole entry): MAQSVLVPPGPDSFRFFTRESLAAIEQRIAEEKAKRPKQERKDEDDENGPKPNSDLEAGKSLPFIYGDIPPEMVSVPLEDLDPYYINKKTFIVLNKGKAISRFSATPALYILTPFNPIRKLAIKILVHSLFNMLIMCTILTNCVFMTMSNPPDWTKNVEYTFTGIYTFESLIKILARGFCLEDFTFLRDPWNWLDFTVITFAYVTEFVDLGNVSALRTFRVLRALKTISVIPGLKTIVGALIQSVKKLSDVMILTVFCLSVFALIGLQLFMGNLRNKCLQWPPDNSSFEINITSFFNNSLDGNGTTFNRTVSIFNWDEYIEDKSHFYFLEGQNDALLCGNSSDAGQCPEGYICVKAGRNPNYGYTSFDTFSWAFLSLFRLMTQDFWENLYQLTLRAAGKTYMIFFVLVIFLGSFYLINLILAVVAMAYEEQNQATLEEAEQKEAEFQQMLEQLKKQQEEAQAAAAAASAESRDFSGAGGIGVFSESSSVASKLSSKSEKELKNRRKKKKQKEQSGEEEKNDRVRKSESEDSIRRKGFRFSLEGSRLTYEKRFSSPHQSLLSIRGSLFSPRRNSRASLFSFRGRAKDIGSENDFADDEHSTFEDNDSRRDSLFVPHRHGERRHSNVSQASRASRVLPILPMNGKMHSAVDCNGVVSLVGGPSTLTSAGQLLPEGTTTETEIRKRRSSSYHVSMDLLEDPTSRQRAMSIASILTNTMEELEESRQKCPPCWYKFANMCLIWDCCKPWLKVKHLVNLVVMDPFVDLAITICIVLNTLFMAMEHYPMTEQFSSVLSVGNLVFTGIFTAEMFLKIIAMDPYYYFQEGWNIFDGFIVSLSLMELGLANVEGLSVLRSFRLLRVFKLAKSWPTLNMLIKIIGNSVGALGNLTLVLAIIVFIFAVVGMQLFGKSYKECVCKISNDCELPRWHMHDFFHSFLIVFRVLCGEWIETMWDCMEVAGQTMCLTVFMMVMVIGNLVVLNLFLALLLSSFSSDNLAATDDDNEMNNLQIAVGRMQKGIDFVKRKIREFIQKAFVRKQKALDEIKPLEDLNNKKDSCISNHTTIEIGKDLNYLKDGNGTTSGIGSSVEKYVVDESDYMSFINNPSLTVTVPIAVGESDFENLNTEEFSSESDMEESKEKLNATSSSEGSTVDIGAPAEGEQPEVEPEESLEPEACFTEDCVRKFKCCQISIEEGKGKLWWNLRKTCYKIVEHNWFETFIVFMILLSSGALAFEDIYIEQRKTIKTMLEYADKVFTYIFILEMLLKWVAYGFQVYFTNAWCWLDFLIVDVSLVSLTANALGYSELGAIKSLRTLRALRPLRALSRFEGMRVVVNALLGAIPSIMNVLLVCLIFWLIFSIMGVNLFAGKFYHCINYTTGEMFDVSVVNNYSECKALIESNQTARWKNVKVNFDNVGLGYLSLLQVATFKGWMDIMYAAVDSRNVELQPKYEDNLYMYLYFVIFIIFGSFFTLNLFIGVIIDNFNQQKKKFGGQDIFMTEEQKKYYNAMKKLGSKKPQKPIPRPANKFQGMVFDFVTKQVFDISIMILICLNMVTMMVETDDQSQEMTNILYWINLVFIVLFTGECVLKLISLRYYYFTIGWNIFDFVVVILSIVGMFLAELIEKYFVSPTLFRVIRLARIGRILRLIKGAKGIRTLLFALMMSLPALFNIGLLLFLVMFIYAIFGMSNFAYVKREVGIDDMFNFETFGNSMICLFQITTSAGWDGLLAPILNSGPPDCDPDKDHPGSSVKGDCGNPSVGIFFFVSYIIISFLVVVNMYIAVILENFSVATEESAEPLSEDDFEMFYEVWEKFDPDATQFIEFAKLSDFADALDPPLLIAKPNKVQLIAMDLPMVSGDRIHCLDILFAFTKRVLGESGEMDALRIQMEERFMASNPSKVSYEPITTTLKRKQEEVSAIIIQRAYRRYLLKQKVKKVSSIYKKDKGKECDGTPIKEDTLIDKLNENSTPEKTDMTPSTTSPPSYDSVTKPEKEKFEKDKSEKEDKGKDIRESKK
# [5] = Neurotoxicity in ip dosed sc-PTZ induced Kunming mouse measured after 0.5 hrs by rotarod test; type: toxicity, organism-based; details: in vivo
# Mus musculus [6] = test: Antiepileptic activity in PTZ induced Kunming mouse model assessed as protection of seizure at 30 mg/kg, ip incubated for 30 min prior to PTZ stimulation relative to control; type: functional; details: 0.5 h
# [7] = Drug concentration in male Sprague-Dawley rat plasma at 30 mg/kg, IG administered once measured after 0.25 to 8 hrs by HPLC analysis; type: ADME, organism-based; details: in vivo, po, time 0.25-8 hrs
# [8] = Drug concentration in male Sprague-Dawley rat brain at 30 mg/kg, IG administered once measured after 0.25 to 8 hrs by HPLC analysis; type: ADME, organism-based; details: in vivo, po, time 0.25-8 hrs
# Mus musculus [9] = test: Anticonvulsant activity in ip dosed sc-PTZ induced Kunming mouse model assessed as effective dose measured after 0.5 hrs […]; type: functional
# [10] = target: T1, GABA-A receptor; alpha-1/beta-2/gamma-2 (Homo sapiens, UniProt P14867+P18507+P47870); test: Potentiation of recombinant human alpha1/beta2/gamma2 GABA receptor expressed in T-REX-CHO cells assessed as increase in current amplitude by whole-cell patch clamp assay; type: cell-based
# T1 sequence (P14867 whole entry): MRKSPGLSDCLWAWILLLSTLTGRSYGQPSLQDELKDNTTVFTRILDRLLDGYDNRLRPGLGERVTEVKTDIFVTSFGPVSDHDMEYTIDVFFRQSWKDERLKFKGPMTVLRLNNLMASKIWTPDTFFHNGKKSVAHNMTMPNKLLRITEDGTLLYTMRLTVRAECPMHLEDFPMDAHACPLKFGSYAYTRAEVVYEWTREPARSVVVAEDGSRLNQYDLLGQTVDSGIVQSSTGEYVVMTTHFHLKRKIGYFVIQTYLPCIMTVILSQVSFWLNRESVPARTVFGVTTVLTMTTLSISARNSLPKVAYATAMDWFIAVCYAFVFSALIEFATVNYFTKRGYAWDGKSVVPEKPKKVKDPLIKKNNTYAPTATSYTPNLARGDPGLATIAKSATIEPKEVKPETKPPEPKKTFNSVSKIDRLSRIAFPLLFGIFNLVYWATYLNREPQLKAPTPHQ
# T1 sequence (P47870 whole entry): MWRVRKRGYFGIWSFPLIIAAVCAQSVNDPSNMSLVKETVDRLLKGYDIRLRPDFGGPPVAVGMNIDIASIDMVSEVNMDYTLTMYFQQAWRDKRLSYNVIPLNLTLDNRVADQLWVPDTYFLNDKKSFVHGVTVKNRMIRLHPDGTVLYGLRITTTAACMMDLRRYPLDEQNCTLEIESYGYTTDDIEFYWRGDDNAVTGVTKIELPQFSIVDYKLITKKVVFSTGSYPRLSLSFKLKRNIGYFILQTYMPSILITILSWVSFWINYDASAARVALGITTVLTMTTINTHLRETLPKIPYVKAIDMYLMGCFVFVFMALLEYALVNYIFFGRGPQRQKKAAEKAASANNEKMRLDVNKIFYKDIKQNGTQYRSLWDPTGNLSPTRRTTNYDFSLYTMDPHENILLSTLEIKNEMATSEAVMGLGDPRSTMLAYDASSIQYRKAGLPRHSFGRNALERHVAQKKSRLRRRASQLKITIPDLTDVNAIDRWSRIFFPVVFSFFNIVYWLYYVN
# T1 sequence (P18507 whole entry): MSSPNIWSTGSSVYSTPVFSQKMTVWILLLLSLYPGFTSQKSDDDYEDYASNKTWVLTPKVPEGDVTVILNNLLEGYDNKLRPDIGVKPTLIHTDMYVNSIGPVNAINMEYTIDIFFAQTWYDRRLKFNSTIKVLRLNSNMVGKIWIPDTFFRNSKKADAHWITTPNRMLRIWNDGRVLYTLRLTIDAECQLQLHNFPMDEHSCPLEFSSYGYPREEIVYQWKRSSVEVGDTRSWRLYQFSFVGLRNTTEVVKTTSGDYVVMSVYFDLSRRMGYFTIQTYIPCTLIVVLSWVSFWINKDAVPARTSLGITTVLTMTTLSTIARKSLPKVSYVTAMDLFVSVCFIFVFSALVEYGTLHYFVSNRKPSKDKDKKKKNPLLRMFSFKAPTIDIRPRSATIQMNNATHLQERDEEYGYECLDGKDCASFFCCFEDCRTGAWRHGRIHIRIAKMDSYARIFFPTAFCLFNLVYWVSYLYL
# [11] = target: GABA-A receptor; anion channel (Rattus norvegicus) (UniProt O09028+P15431+P18506+P18508+P19969+P20236+P23574+P23576+P28471+P28473+P30191+P62813+P63079+P63138+Q91ZM7+Q9ES14); test: Potentiation of GABAA receptor in Sprague-Dawley rat hippocampal neurons assessed as increase in current amplitude by whole-cell voltage-clamp assay; type: cell-based; details: Hippocampal neuron, filed as activator, dose 0.1-10 µM
fold change (FC) [3],IC50 [4] [µM],Cp [7] [ng/mL],Ct [8] [ng/mL],EC50 [10] [nM],Activity [11],Structure (SMILES),Activity (Mus musculus [1]),selectivity ratio [2],TD50 at 0.5 h [5] [mg/kg],Activity (Mus musculus [6]) [%],ED50 (Mus musculus [9]) [mg/kg]
–,–,–,–,–,–,O=C1CC(c2ccccc2Cl)n2nc(-c3ccccc3F)nc2N1 (configuration not stated),Active; Moderate Protection,–,–,–,–
1.14,19.9,866.91,458.72,–,–,O=C1CC(c2ccccc2F)n2nc(-c3ccccc3F)nc2N1 (configuration not stated),Active; Moderate Protection,> 11.3,> 267,100,23.7
–,–,–,–,–,–,O=C1NC(=O)C(c2ccccc2)(c2ccccc2)N1 [PHENYTOIN],–,–,–,–,> 300
–,–,–,–,–,–,NC(=O)N1c2ccccc2C=Cc2ccccc21 [CARBAMAZEPINE],–,–,–,–,> 100
–,–,–,–,–,–,CCCC(CCC)C(=O)O [VALPROIC ACID],–,–,–,–,149
2.41,35,1202.06,696.98,1240,Dose-dependent-effect,CCCCN1C(=O)CC(c2ccccc2)n2nc(-c3ccc(OC)cc3)nc21 (configuration not stated),–,> 15.6,> 267,100,17.1
2.21,–,1186.41,661.3,820,Dose-dependent-effect,CCCCN1C(=O)CC(c2ccccc2)n2nc(-c3ccc(C)cc3)nc21 (configuration not stated),–,> 14.6,> 267,100,18.3
